Data set [1] deals with LNCaP. Briefly: Prostate cancer cell cytotoxicity, crystal violet assay, LNCaP. It is filed as cell-based, human. To be noted: 3 h drug, 4 days growth. The method, then: (§1) Toxicity to the three prostate cancer cell lines, LNCaP, DU-145, and PC-3 were measured in two different media, RPMI-1640 and DMEM (Dulbecco's Modified Eagle Medium), both supplemented with 10% fetal bovine serum.
(§2) Cell lines were maintained in vitro in RPMI 1640 media or DMEM, each supplemented with 10% fetal bovine serum, 2 mM L-glutamine, 10 mM HEPES buffer, penicillin (100 units/mL) and streptomycin (100 μg/mL).
(§3) Cells were dissociated with trypsin/EDTA, counted, and suspended in growth media (RPMI or DMEM) to a concentration of 5.6×10^3 cells/mL. Cell suspensions were dispensed in 180 μL aliquots into 96-well tissue culture plates. […] Each 100× solution was diluted 10× in growth media (RPMI or DMEM), and a 20 μL aliquot of the resulting 10× solution was immediately (<10s) added to-the appropriate lane. Additionally, one lane was treated with 20 μL of 10% DMSO in growth media (no drug) and one lane was treated with 200 μL of 1.5 M Tris buffer (no cells). The cells were incubated with the drugs for 3 h at 37° C. The drug solutions were then removed and replaced with 200 μL of fresh media. The cells were incubated for 4 days (7 days for PC-3 cells in DMEM) at 37° C. in a humidified atmosphere of 5% CO2 and 95% air. Cell survival was determined using a crystal violet assay as described earlier (Fenick, D. J. et al (1997) J. Med. Chem. 40: 2452-2461).

In data set [2] the test system is DU-145. Put plainly: Prostate cancer cell cytotoxicity, crystal violet assay, DU-145. To be noted: 3 h drug, 4 days growth. It is filed as cell-based, human. As to the method:
as §1, §2, §3

Data set [3] relates to MCF-7/ADR cells. Briefly: Cytotoxicity versus time of drug hydrolysis before addition to cells. It is filed as cell-based, human. To be noted: 1 μmol equiv./L, 25° C., serum-free media containing 10% DMSO, MCF-7/ADR survival. As to the method: The results of these experiments are illustrated in FIG. 2. […] However, the dimeric formaldehyde conjugate of daunorubicin completely lost its effectiveness within 25 min of standing in an aqueous solution. […] This biphasic curve is probably due to the decay mechanism of the dimeric formaldehyde conjugate of doxorubicin to doxorubicin in aqueous solution.
The drug solution was diluted 1:100 with DMSO, then 1:10 in serum-free RPMI media 1640. A volume of 20 μL of the resulting 0.5 μM (1 μmol equiv/L) drug solution was immediately added to the t=0 min lane. The remaining lanes were treated at 5 min intervals with 20 μL of the remaining drug solution, which was held at 25° C. between additions. Additionally, one lane was treated with 20 μL/well of serum-free RPMI media containing 10% DMSO (no drug) and one lane replaced with 200 μL/well of 1.5 M Tris buffer (no cells). Each lane was incubated at 37° C. for 3 h.

Data set [4] can be described thus: Stability in DMSO and DMSO/water, NMR or HPLC. In kind it is physicochemical. As to the method:
Crystalline dimeric formaldehyde conjugate of daunorubicin (2.8 mg, 2.6 μmol) was dissolved in 500 μL of DMSO-d6 (stored over 3 A molecular sieves) and analyzed by 400 MHz, ^1H NMR. […] Upon addition of 25 μL of D2O to the 500 μL DMSO-d6 sample, the dimeric formaldehyde conjugate of daunorubicin reacted over a 24 h period to form an equilibrium mixture consisting of 67% dimeric formaldehyde conjugate of daunorubicin and 32% of an intermediate. Because of the complexity of the spectrum, a structure could not be assigned to the intermediate; however, the intermediate appeared to have an oxazolidine ring. Upon addition of 3 equiv of hydrochloric acid in 130 μL of deuterium oxide, hydrolysis to daunorubicin-HCl was complete. The hydrochloric acid solution was prepared by the addition of 10 μL of concentrated HCl to 990 μL of D2O. The formaldehyde released from the dimeric formaldehyde conjugate of daunorubicin was detected as its hydrate. The final product was identified as daunorubicin by comparison of the NMR spectrum with that of a sample of daunorubicin plus 3 equiv of HCl. Further, the final product was isolated by removal of all volatile components under vacuum (0.1 Torr), and its ^1H NMR spectrum was identical to that of daunorubicin-HCl.
Amorphous dimeric formaldehyde conjugate of daunorubicin, when worked up in methylene chloride, was stable in DMSO for at least 4 days. It hydrolyzed with added D2O and hydrochloric acid in a manner similar to that of the crystalline material. When worked up in chloroform, amorphous dimeric formaldehyde conjugate of daunorubicin had less stability in DMSO, presumably due to traces of HCl from the chloroform.
A 1.3 mg sample of N-acetyl-3′-N,4′-O-methylenedaunorubicin was dissolved in […] of DMSO and analyzed over time by HPLC. […] At this time, […] of water was added to the DMSO/N-acetyl monomeric formaldehyde conjugate of daunorubicin solution, establishing a 50:50 DMSO:water mixture (v/v). In this solution, the N-acetyl-3′-N,4′-O-methylenedaunorubicin remained 91% intact (9% degradation to daunorubicin) over a period of 6 days, based upon the HPLC analysis.
A pH 6 triethyl ammonium acetate solution containing 13.1 μmol of epidoxorubicin-HCl and 6.6 mmol of […] was allowed to react in the dark at 25° C. for 30 min. The mixture was then extracted with chloroform with vigorous stirring for 20 min. The chloroform solution was dried over sodium sulfate and the chloroform removed by rotary evaporation. The resulting dry solid was redissolved in 1.0 mL of chloroform. To this was added 10 mL of n-hexane. After 2 days, a large amount of precipitate had formed, which was washed with 3×5 mL of n-hexane, followed by 4×1 mL of water.
The sample was maintained at ambient temperature for 2 h; after this period no change in the spectrum was observed. […] A stock 122 mM solution of HCl in D2O was prepared by adding concentrated hydrochloric acid to D2O. […] Complete hydrolysis occurred upon addition of ca. 2-3 equiv of HCl. A similar experiment was performed using HCl in H2O. […] This solution was incubated at 37° C. for 24 h prior to NMR analysis.

Data set [5] in a line: Hydrolysis in aqueous phosphate buffer, HPLC. It is filed as physicochemical. As to the method: See Example 16. […] The DMSO was present to increase solubility.
Second, the kinetics of hydrolysis were measured in pH 6.0 phosphate buffer.
A 960 μL solution of pH 7.3 phosphate buffer was heated to 37° C. […] No change in the chromatography was observed if pH, 7.3 phosphate buffer was used as the eluent in place of pH 7.4 TEAA buffer.

Data set [6] is described as follows: Hydrolysis in fetal bovine serum, HPLC. The settings on record: pH 8.1, in serum at 37° C., read-out: half-life of the equilibrium mixture with intermediate B with respect to formation of intermediates C and D. It is filed as in vitro ADME.

Where two headings read alike, the source gives them in different places.

For the compound `COc1cccc2c1C(=O)c1c(O)c3c(c(O)c1C2=O)C[C@@](O)(C(C)=O)C[C@@H]3O[C@H]1C[C@H]2[C@H](OCN2CN2CO[C@@H]3[C@H](C)O[C@@H](O[C@H]4C[C@](O)(C(C)=O)Cc5c(O)c6c(c(O)c54)C(=O)c4c(OC)cccc4C6=O)C[C@@H]32)[C@H](C)O1` [DAUNF, bis(3′-N-(3′-N,4′-O-methylenedaunorubicinyl))methane], the IC50 in data set [1] (DMEM with 10% fetal bovine serum, read-out: IC50 Values, LNCaP/DMEM (converted)) is 1.5 nM; in data set [1] (RPMI-1640 with 10% fetal bovine serum, read-out: IC50 Values, LNCaP/RPMI-1640 (converted)), 3 nM; in data set [2] (DMEM with 10% fetal bovine serum, read-out: IC50 Values, DU-145/DMEM (converted)) it was 4 nM; in data set [2] (RPMI-1640 with 10% fetal bovine serum, read-out: IC50 Values, DU-145/RPMI-1640 (converted)) it was 5 nM. Moreover, the “time of standing in an aqueous solution until effectiveness completely lost” value in data set [3] was not above 25 min. Also, the “share of conjugate in the equilibrium mixture” value in data set [4] (25 μL D2O added to 500 μL DMSO-d6, over 24 h, NMR) was determined as 67%. The “time stable in DMSO” value is given as “at least 14 h” in data set [4] (crystalline material in DMSO-d6 stored over molecular sieves, 1H NMR) and “at least 4 days” in data set [4] (dry DMSO / DMSO-d6, 1H NMR).

As to `COc1cccc2c1C(=O)c1c(O)c3c(c(O)c1C2=O)CC(O)(C(=O)CO)CC3OC1CC2C(OCN3CN2COC2C(C)OC(OC4C[C@](O)(C(=O)CO)Cc5c(O)c6c(c(O)c54)C(=O)c4c(OC)cccc4C6=O)CC23)C(C)O1` (stereo partly shown) [EPIF], the half-life at 25 µM in data set [5] (pH 6.0 phosphate buffer, 37° C.) was 0.25 h; in data set [6], not below 2 h. Further, the “time the equilibrium mixture is stable” value in data set [5] (pH 7.3, at equilibrium) is “at least 2 days”. Also, the half-life in data set [5] (pH 7.3 phosphate buffer, 37° C., read-out: half-life of hydrolysis, forward reaction (A⇄B) to C+D (converted)) was approximately 2 h. In addition, the “time stable in DMSO” value in data set [4] (dry DMSO / DMSO-d6, 1H NMR) is on record as “at least 4 days”.

(Values after patent US6677309B1, “Anti-cancer drug aldehyde conjugate drugs with enhanced cytotoxicity compounds, compositions and methods” (University Technology Corporation, priority 1997, dated 2004).)
